Experimental data: PubChem BioAssay AID1919000 (Molecular Pharmacology Branch, DTP, NCI, 2023)
Several values for one entry are separate records, joined by “and”; a condition that tells them apart may be missing. Equal values may be shown once.

System: 653999-131-R-J2-PDC complex spheroids, growth % test/control
Experiment: Anticancer human tumor 653999-131-R-J2-PDC patient-derived lung adenocarcinoma cell line growth inhibition [AhR]
Details: for viability, T/C: stronger effect = lower value
Description: Multicellular complex tumor spheroid response to aryl hydrocarbon receptor antagonists in combination with a variety of drugs and investigational agents in selected tumor cell lines
The current study was undertaken to assess response to aryl hydrocarbon receptor antagonists in combination with standard-of-care drugs and investigational agents in solid tumor complex spheroid models. Complex spheroids include a stromal component modeled by human endothelial cells (HUVEC) and fibroblasts modeled by human mesenchymal stem cells (MSCs). The concentration ranges selected for each drug and investigational agent were based upon clinically achievable concentrations if the clinical Cmax of the agent was known.
Compounds. The drugs and investigational agents: BAY 2416964 (NSC825713), GNF351 (NSC835774), CH-223191 (NSC835775), CPI-455 (NSC825282), aza-TdCyd (NSC777586), decitabine (NSC127716), belinostat (NSC758774), entinostat (NSC756642), pevonedistat (NSC761192), tazemetostat (NSC777109), talazoparib (NSC765396), olaparib (NSC753686), selinexor (NSC780203), nedisertib (M3814, NSC802822), bortezomib (NSC756655), venetoclax (NSC766270), doxorubicin (NSC123127), elimusertib (BAY189344, NSC800525), ceralasertib (AZD6738, NSC777638), TAK-243 (NSC785004), alisertib (NSC759677), etoposide (NSC141540), topotecan (NSC609699), eribulin (NSC707389), gemcitabine (NSC613327), carboplatin (NSC241240), cisplatin (NSC119875), and SN-38 (NSC673596) were obtained from the National Cancer Institute (NCI) Developmental Therapeutics Program Chemical Repository (32). The FDA-approved anticancer drug set is available from the Developmental Therapeutics Program at https://dtp.cancer.gov/organization/dscb/obtaining/available plates.htm. […] The stock solutions were prepared in dimethyl sulfoxide (DMSO, Sigma-Aldrich, St. Louis, MO, cat. D2650), except for the platinum compounds which were prepared in saline (Quality Biological, Gaithersburg, MD, cat. 114-055-101), at 800-fold the tested concentration and stored at -70 degrees C prior to their use. All drugs and investigational agents were tested over a range starting from a high concentration at or near the clinical Cmax and decreasing in half-log increments. If the clinical Cmax for an agent had not been determined, the highest concentration tested was 10 microM (Table 1).
Cell Culture. All cells were maintained in an incubator at 37 degrees C and 5% CO2 with 95% humidity. The PDC lines were cultured according to standard operating procedures established by the NCI PDMR (https://pdmr.cancer.gov). Briefly, all PDCs were thawed and cultured in Matrigel-coated flasks prepared with a working solution of 1X Ham's F-12 nutrient mix, without supplementation (Invitrogen, Waltham, MA, cat. 11765054), 100 U/mL penicillin-streptomycin (Invitrogen, cat. 15140122), and 2.5% Matrigel (Corning Inc., Corning, NY, cat. 354248) for the first three passages. All PDCs were cultured in complete DMEM/F-12 media containing advanced DMEM/F-12 (Invitrogen, cat. 12634028), 4.9% defined fetal bovine serum, heat inactivated (HyClone Laboratories Inc., Logan, UT, cat. SH30070.03HI), 389 ng/mL hydrocortisone (Sigma-Aldrich, cat. H4001), 9.7 ng/mL human EGF recombinant protein (Invitrogen, cat. PHG0313), 23.4 microg/mL adenine (Sigma-Aldrich, cat. A2786), 97.3 U/mL penicillin-streptomycin (Invitrogen, cat. 15140122), 1.9 mM L-glutamine (Invitrogen, cat. 25030081), and 9.7 microM Y-27632 dihydrochloride (Tocris Bioscience, Bristol, United Kingdom, cat. 1254). The PDCs were cultured in complete DMEM/F12 media without 10 microM Y-27632 dihydrochloride for at least two passages prior to the screen. The established cell lines NCI-H1341 and […] were cultured in DMEM/F-12, HEPES (Invitrogen, cat. 11330032), 5% defined fetal bovine serum (HyClone Laboratories Inc., cat. SH30070.03), ITS premix universal culture supplement [insulin (5 microg/mL), transferrin (5 microg/mL), and selenious acid (5 ng/mL)] […]

[1] = curve of first compound, second compound 0.1 µM
[2] = curve of first compound, second compound 0.316 µM
[3] = curve of first compound, second compound 1 µM
[4] = curve of first compound, second compound 3.16 µM
[5] = curve of first compound, second compound 10 µM
[6] = second compound 0.1 µM, first compound 0.0316 µM
[7] = second compound 0.1 µM, first compound 0.1 µM
[8] = second compound 0.1 µM, first compound 0.316 µM
[9] = second compound 0.1 µM, first compound 1 µM
[10] = second compound 0.1 µM, first compound 3.16 µM
[11] = second compound 0.1 µM, first compound 10 µM
[12] = second compound 0.316 µM, first compound 0.0316 µM
[13] = second compound 0.316 µM, first compound 0.1 µM
[14] = second compound 0.316 µM, first compound 0.316 µM
[15] = second compound 0.316 µM, first compound 1 µM
[16] = second compound 0.316 µM, first compound 3.16 µM
[17] = second compound 0.316 µM, first compound 10 µM
[18] = second compound 1 µM, first compound 0.0316 µM
[19] = second compound 1 µM, first compound 0.1 µM
[20] = second compound 1 µM, first compound 0.316 µM
[21] = second compound 1 µM, first compound 1 µM
[22] = second compound 1 µM, first compound 3.16 µM
[23] = second compound 1 µM, first compound 10 µM
[24] = second compound 3.16 µM, first compound 0.0316 µM
[25] = second compound 3.16 µM, first compound 0.1 µM
[26] = second compound 3.16 µM, first compound 0.316 µM
[27] = second compound 3.16 µM, first compound 1 µM
[28] = second compound 3.16 µM, first compound 3.16 µM
[29] = second compound 3.16 µM, first compound 10 µM
[30] = second compound 10 µM, first compound 0.0316 µM
[31] = second compound 10 µM, first compound 0.1 µM
[32] = second compound 10 µM, first compound 0.316 µM
[33] = second compound 10 µM, first compound 1 µM
[34] = second compound 10 µM, first compound 3.16 µM
[35] = second compound 10 µM, first compound 10 µM
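Note: spheroids exposed to agents for seven days.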

SMILES	IC50 [1] [µM]	IC50 [2] [µM]	IC50 [3] [µM]	IC50 [4] [µM]	IC50 [5] [µM]	viability, T/C [6] [%]	viability, T/C [7] [%]	viability, T/C [8] [%]	viability, T/C [9] [%]	viability, T/C [10] [%]	viability, T/C [11] [%]	viability, T/C [12] [%]	viability, T/C [13] [%]	viability, T/C [14] [%]	viability, T/C [15] [%]	viability, T/C [16] [%]	viability, T/C [17] [%]	viability, T/C [18] [%]	viability, T/C [19] [%]	viability, T/C [20] [%]	other results
COc1cc(C2c3cc4c(cc3C(OC3OC5COC(C)OC5C(O)C3O)C3COC(=O)C23)OCO4)cc(OC)c1O (configuration not stated) + CC(CO)NC(=O)c1cc(-c2ccc(Cl)cc2)nn(-c2cnn(C)c2)c1=O	1.27	0.894	0.944	0.823	0.846	87.5	79.2	73.9	51.9	37.8	28.9	82.3	85.8	63.5	48.4	36.5	26.6	86.5	80.2	77.2	viability, T/C [21]: 48%; viability, T/C [22]: 34.7%; viability, T/C [23]: 30.2%; viability, T/C [24]: 79.4%; viability, T/C [25]: 80.9%; viability, T/C [26]: 72.5%; viability, T/C [27]: 44.1%; viability, T/C [28]: 42.8%; viability, T/C [29]: 28.8%; viability, T/C [30]: 83.2%; viability, T/C [31]: 83%; viability, T/C [32]: 62.6%; viability, T/C [33]: 49.4%; viability, T/C [34]: 31.6%; viability, T/C [35]: 25.6%
CC1COCCN1c1cc(C2(S(C)(=N)=O)CC2)nc(-c2ccnc3[nH]ccc23)n1 (configuration not stated)	–	–	–	–	–	–	–	–	–	–	–	–	–	–	–	–	–	–	–	–	viability, T/C (compound 0.0316 µM): 109% and 102% and 99.7%; viability, T/C (compound 0.1 µM): 110% and 106% and 102%; viability, T/C (compound 0.316 µM): 104% and 101% and 107%; viability, T/C (compound 1 µM): 101% and 98.8% and 94.3%; viability, T/C (compound 3.16 µM): 87.2% and 70.5% and 81.3%; viability, T/C (compound 10 µM): 50.6% and 45.6% and 57.8%; IC50 (curve of compound): > 10 µM and 8.16 µM
CC(C)c1c(-c2ccccc2)nc2c(C#N)c[nH]n2c1=O + Cc1ccccc1N=Nc1ccc(NC(=O)c2ccnn2C)c(C)c1	> 10	> 10	> 10	> 10	> 10	97.4	101	107	95.6	98.5	99.1	96.5	105	103	98.9	98.2	111	106	126	108	viability, T/C [21]: 105%; viability, T/C [22]: 109%; viability, T/C [23]: 104%; viability, T/C [24]: 99.4%; viability, T/C [25]: 115%; viability, T/C [26]: 107%; viability, T/C [27]: 92.8%; viability, T/C [28]: 90.3%; viability, T/C [29]: 105%; viability, T/C [30]: 97.5%; viability, T/C [31]: 105%; viability, T/C [32]: 111%; viability, T/C [33]: 92.7%; viability, T/C [34]: 107%; viability, T/C [35]: 108%
CC1COCCN1c1cc(C2(S(C)(=N)=O)CC2)nc(-c2ccnc3[nH]ccc23)n1 (configuration not stated) + Cc1cncc(-c2nc(NCCc3c[nH]c4ccccc34)c3ncn(C(C)C)c3n2)c1	8.43	9.85	> 10	9.8	2.7	105	102	94.7	104	86.1	43.7	103	111	108	94.8	82	49.5	107	110	124	viability, T/C [21]: 104%; viability, T/C [22]: 87.1%; viability, T/C [23]: 55.1%; viability, T/C [24]: 101%; viability, T/C [25]: 111%; viability, T/C [26]: 112%; viability, T/C [27]: 99%; viability, T/C [28]: 85%; viability, T/C [29]: 49.2%; viability, T/C [30]: 71.4%; viability, T/C [31]: 70.6%; viability, T/C [32]: 64.5%; viability, T/C [33]: 56.1%; viability, T/C [34]: 49.6%; viability, T/C [35]: 44.2%
CC1(C)CCC(CN2CCN(c3ccc(C(=O)NS(=O)(=O)c4ccc(NCC5CCOCC5)c([N+](=O)[O-])c4)c(Oc4cnc5[nH]ccc5c4)c3)CC2)=C(c2ccc(Cl)cc2)C1 + Cc1ccccc1N=Nc1ccc(NC(=O)c2ccnn2C)c(C)c1	> 10	> 10	> 10	> 10	> 10	100	99.1	103	95.1	97.7	68.7	88.8	90.6	97.7	86	92.1	64.7	99	93.1	89	viability, T/C [21]: 99.4%; viability, T/C [22]: 91.7%; viability, T/C [23]: 73.8%; viability, T/C [24]: 99.5%; viability, T/C [25]: 90.2%; viability, T/C [26]: 94.3%; viability, T/C [27]: 90%; viability, T/C [28]: 85.6%; viability, T/C [29]: 80.8%; viability, T/C [30]: 84%; viability, T/C [31]: 94.7%; viability, T/C [32]: 83.9%; viability, T/C [33]: 88.9%; viability, T/C [34]: 81%; viability, T/C [35]: 80.5%
